Assay results published in patent US10703821B2, “Method for stimulating or enhancing proliferation of cells by activating the mucin 1 (MUC1) receptor” (MINERVA BIOTECHNOLOGIES CORPORATION, priority 2005, dated 2020).

Test system: PSMGFR region of MUC1
Test: western blot of ERK2 phosphorylation, competition with anti-PSMGFR
Format: cell-based
Text: FIG. 6 is a western blot of a competition experiment in which small molecules that bind to the PSMGFR region of MUC1 compete with anti-PSMGFR for binding to the site. […] The chemical formula for the competitor compound MN 9 referred to in this figure is […]

O=C(c1ccc2ccccc2c1)N1CCc2c([nH]c3ccccc23)C1c1ccc(C(F)(F)F)cc1 (centres unmarked) [MN 9]
binding of anti-PSMGFR to the PSMGFR site in competition (in the presence of competitor small molecule): the antibody does not bind
ERK2 phosphorylation (in the presence of competitor small molecule and anti-PSMGFR): ERK2 phosphorylation is inhibited
